Experimental data published in ChEMBL document CHEMBL5696442, “Discovery of type II inhibitors of TGFβ-activated kinase 1 (TAK1) and mitogen-activated protein kinase kinase kinase kinase 2 (MAP4K2)” (J Med Chem, 2015).
Activity calls are given as the source filed them. The rule behind the calls is not given here.

Legend:
[1] = target: Casein kinase I isoform alpha (Homo sapiens) (UniProt P48729); experiment: Inhibition of CK1alpha Lys2 labeling site in human Huh-7 cell lysate at 1 uM by KiNativ Profiling analysis relative to control; assay type: subcellular
[2] = target: T1, Serine/threonine-protein kinase D2 (Homo sapiens) (UniProt Q9BZL6); experiment: Inhibition of PKD2 Lys2 labeling site in human Huh-7 cells at 1 uM by KiNativ Profiling analysis relative to control; assay type: cell-based
T1 sequence (whole entry): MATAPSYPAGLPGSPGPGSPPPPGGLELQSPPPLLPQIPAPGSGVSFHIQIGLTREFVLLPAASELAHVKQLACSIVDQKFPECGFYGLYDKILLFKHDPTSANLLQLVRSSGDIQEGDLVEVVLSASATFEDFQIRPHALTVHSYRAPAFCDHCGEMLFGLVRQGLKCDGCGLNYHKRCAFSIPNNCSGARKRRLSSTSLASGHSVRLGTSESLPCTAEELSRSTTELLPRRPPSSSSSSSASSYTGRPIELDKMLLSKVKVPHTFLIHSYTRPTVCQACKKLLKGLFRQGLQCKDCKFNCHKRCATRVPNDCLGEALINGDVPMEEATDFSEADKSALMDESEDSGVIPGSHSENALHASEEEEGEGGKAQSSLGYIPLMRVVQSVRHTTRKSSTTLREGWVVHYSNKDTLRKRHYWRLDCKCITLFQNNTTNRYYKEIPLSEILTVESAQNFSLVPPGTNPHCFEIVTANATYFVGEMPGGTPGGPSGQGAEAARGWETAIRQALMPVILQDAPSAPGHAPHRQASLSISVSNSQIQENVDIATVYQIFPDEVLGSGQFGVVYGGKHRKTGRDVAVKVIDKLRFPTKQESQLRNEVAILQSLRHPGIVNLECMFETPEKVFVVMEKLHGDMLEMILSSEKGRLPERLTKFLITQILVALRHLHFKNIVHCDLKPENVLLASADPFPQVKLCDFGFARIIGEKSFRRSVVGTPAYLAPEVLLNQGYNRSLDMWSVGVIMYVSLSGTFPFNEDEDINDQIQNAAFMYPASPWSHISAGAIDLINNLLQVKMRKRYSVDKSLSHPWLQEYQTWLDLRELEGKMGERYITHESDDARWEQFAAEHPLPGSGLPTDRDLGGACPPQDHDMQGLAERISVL

[3] = target: Cyclin-dependent kinase 1 (Homo sapiens) (UniProt P06493); experiment: Inhibition of CDC2 Lys2 labeling site in human Huh-7 cell lysate at 1 uM by KiNativ Profiling analysis relative to control; assay type: subcellular
[4] = target: Serine/threonine-protein kinase 38-like (Homo sapiens) (UniProt Q9Y2H1); experiment: Inhibition of NDR2 Lys2 labeling site in human A-375 cells at 0.5 uM by KiNativ Profiling analysis relative to control; assay type: cell-based
[5] = target: T2, Phosphatidylinositol 5-phosphate 4-kinase type-2 gamma (Homo sapiens) (UniProt Q8TBX8); experiment: Inhibition of PIP4K2C ATP labeling site harbouring TLVIKEVSSEDIADMHSNLSNYHQYIVK in human A-375 cells at 0.5 uM by KiNativ Profiling analysis relative to control; assay type: cell-based
T2 sequence (whole entry): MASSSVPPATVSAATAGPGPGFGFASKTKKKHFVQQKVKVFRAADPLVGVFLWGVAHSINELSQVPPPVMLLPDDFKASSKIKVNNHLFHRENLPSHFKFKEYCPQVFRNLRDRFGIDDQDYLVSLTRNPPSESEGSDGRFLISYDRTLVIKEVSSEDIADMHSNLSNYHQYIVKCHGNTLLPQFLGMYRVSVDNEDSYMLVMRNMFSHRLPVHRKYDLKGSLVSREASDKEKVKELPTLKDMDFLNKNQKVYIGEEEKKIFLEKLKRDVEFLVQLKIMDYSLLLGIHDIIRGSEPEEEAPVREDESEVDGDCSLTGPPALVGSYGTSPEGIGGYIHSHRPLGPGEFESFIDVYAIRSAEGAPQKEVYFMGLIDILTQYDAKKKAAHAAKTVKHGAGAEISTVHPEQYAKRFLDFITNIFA

[6] = target: Serine/threonine-protein kinase DCLK3 (Homo sapiens) (UniProt Q9C098); experiment: Inhibition of DCAMKL3 (unknown origin) at 10 uM by Ambit Kinomescan binding assay
[7] = target: Ribosomal protein S6 kinase delta-1 (Homo sapiens) (UniProt Q96S38); experiment: Inhibition of RPS6KC1 domain 1 ATP labeling site in human Huh-7 cells at 10 uM by KiNativ Profiling analysis relative to control; assay type: cell-based
[8] = target: AMPK alpha1/alpha2 (Homo sapiens) (UniProt P54646+Q13131); experiment: Inhibition of AMPK alpha1/2 K2 labeling site in human Huh-7 cells at 10 uM by KiNativ Profiling analysis relative to control; assay type: cell-based
[9] = target: Mitogen-activated protein kinase kinase kinase kinase 3 (Homo sapiens) (UniProt Q8IVH8); experiment: Inhibition of MAP4K3 (unknown origin) at 10 uM by Ambit Kinomescan binding assay relative to control
[10] = target: T3, Mitogen-activated protein kinase kinase kinase 2 (Homo sapiens) (UniProt Q9Y2U5); experiment: Inhibition of MAP3K2 Lys2 labeling site in human A-375 cells at 0.5 uM by KiNativ Profiling analysis relative to control; assay type: cell-based
T3 sequence (whole entry): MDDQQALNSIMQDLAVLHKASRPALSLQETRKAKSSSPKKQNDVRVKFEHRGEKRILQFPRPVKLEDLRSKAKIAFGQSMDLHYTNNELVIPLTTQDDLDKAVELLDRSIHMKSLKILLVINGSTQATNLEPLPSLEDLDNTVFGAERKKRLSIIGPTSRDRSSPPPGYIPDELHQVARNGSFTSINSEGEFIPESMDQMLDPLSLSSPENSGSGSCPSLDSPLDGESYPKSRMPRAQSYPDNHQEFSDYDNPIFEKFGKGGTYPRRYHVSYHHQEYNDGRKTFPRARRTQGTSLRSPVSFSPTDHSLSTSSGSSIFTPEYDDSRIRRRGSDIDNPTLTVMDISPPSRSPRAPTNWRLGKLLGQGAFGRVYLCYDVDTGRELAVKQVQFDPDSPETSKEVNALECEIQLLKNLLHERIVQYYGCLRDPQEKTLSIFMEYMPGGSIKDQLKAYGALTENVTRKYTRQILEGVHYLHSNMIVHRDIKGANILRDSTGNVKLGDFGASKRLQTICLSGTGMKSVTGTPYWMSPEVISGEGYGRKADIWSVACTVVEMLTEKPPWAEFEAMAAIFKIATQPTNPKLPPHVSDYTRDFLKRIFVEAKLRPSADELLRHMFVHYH

Chain of Casein kinase I isoform alpha (Homo sapiens) (P48729 2-337 limits assumed): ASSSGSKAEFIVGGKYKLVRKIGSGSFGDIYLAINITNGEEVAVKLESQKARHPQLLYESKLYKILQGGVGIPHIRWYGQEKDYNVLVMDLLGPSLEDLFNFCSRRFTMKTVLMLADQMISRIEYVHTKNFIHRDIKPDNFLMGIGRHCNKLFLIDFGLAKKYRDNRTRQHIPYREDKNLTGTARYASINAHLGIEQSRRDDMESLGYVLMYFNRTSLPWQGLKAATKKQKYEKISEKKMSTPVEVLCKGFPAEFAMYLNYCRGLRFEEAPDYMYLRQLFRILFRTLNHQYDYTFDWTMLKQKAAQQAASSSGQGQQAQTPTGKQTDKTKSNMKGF
Chain of Ribosomal protein S6 kinase delta-1 (Homo sapiens) (Q96S38 whole entry, the tested form may be a part): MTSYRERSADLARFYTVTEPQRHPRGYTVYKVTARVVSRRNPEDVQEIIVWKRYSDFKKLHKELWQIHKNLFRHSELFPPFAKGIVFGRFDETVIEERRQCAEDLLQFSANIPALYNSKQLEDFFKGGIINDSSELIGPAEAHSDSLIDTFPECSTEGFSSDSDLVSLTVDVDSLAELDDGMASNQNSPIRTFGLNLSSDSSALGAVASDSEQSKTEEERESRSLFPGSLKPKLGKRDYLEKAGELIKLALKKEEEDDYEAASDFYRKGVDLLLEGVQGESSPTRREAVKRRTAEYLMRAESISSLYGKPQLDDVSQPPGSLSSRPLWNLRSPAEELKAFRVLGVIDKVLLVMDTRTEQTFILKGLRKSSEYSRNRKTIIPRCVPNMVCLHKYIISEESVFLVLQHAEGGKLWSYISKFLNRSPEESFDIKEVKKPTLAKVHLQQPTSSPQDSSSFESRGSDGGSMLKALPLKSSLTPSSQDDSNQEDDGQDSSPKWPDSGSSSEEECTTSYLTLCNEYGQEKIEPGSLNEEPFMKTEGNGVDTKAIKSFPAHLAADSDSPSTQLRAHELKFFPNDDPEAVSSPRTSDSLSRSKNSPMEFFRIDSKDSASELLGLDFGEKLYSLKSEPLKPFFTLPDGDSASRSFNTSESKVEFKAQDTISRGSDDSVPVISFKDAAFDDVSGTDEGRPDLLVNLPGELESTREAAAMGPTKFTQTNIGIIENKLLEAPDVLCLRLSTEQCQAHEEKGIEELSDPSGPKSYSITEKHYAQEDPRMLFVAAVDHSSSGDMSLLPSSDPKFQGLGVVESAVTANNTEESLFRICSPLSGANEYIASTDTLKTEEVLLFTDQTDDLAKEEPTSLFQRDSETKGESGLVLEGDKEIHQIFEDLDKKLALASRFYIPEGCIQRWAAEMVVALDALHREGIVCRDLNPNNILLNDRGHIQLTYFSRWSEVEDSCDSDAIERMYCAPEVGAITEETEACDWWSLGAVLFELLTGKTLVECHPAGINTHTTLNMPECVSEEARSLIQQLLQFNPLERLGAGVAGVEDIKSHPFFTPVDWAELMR
Chain of AMPK alpha1/alpha2 (Homo sapiens) (P54646 whole entry, looked up): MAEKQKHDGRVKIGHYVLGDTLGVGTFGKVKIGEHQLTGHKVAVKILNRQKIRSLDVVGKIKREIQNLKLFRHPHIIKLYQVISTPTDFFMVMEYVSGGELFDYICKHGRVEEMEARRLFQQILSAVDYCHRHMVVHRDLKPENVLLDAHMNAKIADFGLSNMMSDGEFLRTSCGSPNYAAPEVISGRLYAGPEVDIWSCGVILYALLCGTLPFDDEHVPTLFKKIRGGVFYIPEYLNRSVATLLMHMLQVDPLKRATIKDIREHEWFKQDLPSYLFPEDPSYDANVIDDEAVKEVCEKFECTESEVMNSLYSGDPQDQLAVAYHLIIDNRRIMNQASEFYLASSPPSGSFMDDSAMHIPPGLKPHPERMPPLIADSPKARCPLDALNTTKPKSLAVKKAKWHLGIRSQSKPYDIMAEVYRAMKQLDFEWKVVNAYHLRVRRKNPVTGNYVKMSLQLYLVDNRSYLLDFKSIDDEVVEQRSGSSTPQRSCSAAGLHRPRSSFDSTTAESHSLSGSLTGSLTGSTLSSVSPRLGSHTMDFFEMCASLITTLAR
Chain of AMPK alpha1/alpha2 (Homo sapiens) (Q13131 whole entry, looked up): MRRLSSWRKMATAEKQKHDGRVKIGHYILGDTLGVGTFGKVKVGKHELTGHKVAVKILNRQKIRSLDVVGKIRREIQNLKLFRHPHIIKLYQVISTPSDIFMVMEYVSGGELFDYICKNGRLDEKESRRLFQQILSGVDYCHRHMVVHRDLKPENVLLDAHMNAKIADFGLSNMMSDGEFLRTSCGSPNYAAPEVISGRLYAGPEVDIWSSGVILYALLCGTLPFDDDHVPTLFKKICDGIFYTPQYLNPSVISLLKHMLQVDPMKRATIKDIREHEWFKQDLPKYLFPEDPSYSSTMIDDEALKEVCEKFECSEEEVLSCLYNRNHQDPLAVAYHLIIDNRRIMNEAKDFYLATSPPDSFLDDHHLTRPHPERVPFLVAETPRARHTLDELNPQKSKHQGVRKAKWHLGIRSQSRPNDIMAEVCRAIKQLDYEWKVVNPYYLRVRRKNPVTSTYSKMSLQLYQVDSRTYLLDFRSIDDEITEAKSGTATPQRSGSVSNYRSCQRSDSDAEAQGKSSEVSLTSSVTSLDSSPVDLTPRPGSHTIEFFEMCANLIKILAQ
Chain of Cyclin-dependent kinase 1 (Homo sapiens) (P06493 whole entry, looked up): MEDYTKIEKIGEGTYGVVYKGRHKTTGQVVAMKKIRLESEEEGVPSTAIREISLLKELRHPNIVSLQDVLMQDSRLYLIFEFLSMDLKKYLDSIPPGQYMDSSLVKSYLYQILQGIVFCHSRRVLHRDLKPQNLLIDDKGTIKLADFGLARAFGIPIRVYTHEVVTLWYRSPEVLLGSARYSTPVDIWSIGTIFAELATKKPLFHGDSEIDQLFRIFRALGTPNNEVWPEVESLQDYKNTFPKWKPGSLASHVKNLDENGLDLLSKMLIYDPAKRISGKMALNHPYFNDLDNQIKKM
Chain of Mitogen-activated protein kinase kinase kinase kinase 3 (Homo sapiens) (Q8IVH8 whole entry): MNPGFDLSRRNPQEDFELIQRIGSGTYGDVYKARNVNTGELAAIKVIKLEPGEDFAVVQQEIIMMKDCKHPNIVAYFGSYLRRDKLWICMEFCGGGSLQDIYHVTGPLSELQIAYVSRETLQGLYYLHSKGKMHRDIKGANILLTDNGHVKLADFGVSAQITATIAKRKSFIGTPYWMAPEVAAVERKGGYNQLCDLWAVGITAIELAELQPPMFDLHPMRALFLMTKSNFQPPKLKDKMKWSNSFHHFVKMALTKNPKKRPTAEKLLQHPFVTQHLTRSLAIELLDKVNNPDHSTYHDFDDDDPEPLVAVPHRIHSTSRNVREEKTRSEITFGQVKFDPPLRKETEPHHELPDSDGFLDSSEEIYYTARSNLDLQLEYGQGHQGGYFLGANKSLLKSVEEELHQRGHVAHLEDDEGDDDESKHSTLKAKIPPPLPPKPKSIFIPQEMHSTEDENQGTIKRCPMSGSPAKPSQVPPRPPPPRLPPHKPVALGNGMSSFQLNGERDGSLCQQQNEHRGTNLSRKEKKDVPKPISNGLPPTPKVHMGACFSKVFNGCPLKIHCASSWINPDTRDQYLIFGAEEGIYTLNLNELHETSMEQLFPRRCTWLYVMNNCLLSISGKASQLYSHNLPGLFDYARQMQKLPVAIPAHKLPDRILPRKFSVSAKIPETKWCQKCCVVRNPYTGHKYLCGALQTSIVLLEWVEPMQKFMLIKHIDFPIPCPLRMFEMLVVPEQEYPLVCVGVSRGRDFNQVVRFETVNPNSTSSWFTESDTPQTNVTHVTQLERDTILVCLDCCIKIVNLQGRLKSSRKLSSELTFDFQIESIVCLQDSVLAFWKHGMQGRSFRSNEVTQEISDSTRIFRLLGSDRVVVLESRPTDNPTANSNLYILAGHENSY
Chain of Serine/threonine-protein kinase DCLK3 (Homo sapiens) (Q9C098 whole entry, the tested form may be a part): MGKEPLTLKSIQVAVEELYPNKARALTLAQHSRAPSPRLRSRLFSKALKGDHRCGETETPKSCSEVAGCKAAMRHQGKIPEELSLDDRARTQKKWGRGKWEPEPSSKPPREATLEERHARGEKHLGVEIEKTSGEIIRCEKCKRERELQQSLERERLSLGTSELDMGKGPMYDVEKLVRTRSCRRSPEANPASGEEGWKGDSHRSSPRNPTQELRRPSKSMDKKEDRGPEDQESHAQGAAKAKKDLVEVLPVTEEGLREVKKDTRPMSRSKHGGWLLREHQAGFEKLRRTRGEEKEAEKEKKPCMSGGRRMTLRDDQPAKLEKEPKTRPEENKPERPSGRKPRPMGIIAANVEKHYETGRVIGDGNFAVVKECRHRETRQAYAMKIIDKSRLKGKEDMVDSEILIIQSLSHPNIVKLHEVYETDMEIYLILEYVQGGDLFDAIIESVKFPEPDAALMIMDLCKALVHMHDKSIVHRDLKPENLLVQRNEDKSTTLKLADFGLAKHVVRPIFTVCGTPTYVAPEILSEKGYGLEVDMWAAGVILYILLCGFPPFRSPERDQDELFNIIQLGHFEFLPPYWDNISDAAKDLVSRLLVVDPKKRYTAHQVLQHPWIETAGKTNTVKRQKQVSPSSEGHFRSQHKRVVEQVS
Chain of Serine/threonine-protein kinase 38-like (Homo sapiens) (Q9Y2H1 2-464 limits assumed): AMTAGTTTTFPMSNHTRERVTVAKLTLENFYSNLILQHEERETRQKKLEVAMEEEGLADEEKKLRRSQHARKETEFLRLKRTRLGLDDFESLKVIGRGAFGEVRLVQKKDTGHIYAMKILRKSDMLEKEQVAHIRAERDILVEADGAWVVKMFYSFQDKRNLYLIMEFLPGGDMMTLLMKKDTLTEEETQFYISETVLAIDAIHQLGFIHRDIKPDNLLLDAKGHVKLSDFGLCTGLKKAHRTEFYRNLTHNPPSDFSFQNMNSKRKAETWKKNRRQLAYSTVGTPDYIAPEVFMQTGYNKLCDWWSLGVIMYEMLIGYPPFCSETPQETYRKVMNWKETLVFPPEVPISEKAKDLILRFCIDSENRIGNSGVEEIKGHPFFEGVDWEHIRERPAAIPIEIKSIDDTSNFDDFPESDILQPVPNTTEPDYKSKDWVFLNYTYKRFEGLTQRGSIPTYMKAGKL

`CNc1cc(Oc2cc(C(=O)Nc3cc(N4CCN(C)CC4)cc(C(F)(F)F)c3)ccc2C)ncn1` gave an inhibition [1] of 3.8%, an inhibition [2] of 9% and an inhibition [3] of 0.4%.

With `CCN1CCN(Cc2ccc(NC(=O)c3ccc(C)c(/C=C/c4cnc5[nH]ccc5c4OC)c3)cc2C(F)(F)F)CC1` the inhibition [4] was 13.4% and the inhibition [5] was 5.9%.

For `CCN1CCN(Cc2ccc(NC(=O)c3ccc(C)c(Oc4ccnc5[nH]ccc45)c3)cc2C(F)(F)F)CC1`, the inhibition [6] was “inactive”, the inhibition [7] was 15.4% and the inhibition [8] was 6.2%. For the same compound, the inhibition [9] was 18% and the inhibition [10] was 2.8%.
